Where “and” joins values, the source holds several entries; their conditions need not be identical. Identical values can stand only once. Inconclusive results and toxic doses are left out. No stated cut-off is given here; in the data, active means T/C of 150% or more; inactive means T/C below 125%.
Test system: L1210 leukemia ip in BDF1 mice, survival T/C
Experiment: NCI In Vivo Anticancer Drug Screen. Data for tumor model L1210 Leukemia (intraperitoneal) in B6D2F1 (BDF1) mice
Conditions: endpoint: mean survival time, higher = longer survival
Method in brief: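 Antitumor effect is assessed in tumor-bearing animals. Survival in the compound arm is compared with a vehicle-dosed control arm and expressed as their quotient.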

[1] = dose: 100.0 mg/kg/injection, schedule: Q01DX001 (ip), vehicle: saline
[2] = dose: 200.0 mg/kg/injection, schedule: Q01DX001 (ip), vehicle: saline
[3] = dose: 400.0 mg/kg/injection, schedule: Q01DX001 (ip), vehicle: saline
[4] = dose: 100.0 mg/kg/injection, schedule: Q04DX003 (ip), vehicle: Klucel (hydroxypropylcellulose) (HPC)
[5] = dose: 200.0 mg/kg/injection, schedule: Q04DX003 (ip), vehicle: Klucel (hydroxypropylcellulose) (HPC)
[6] = dose: 400.0 mg/kg/injection, schedule: Q04DX003 (ip), vehicle: Klucel (hydroxypropylcellulose) (HPC)
[7] = dose: 50.0 mg/kg/injection, schedule: Q01DX001 (ip), vehicle: carboxymethylcellulose (CMC)
[8] = dose: 100.0 mg/kg/injection, schedule: Q01DX001 (ip), vehicle: carboxymethylcellulose (CMC)
[9] = dose: 200.0 mg/kg/injection, schedule: Q01DX001 (ip), vehicle: carboxymethylcellulose (CMC)
[10] = dose: 400.0 mg/kg/injection, schedule: Q01DX001 (ip), vehicle: carboxymethylcellulose (CMC)
[11] = dose: 100.0 mg/kg/injection, schedule: Q04DX003 (ip), vehicle: saline
[12] = dose: 200.0 mg/kg/injection, schedule: Q04DX003 (ip), vehicle: saline
[13] = dose: 400.0 mg/kg/injection, schedule: Q04DX003 (ip), vehicle: saline
[14] = dose: 100.0 mg/kg/injection, schedule: Q01DX009 (ip), vehicle: Klucel (hydroxypropylcellulose) (HPC)
[15] = dose: 100.0 mg/kg/injection, schedule: Q04DX002 (ip), vehicle: Klucel (hydroxypropylcellulose) (HPC)
[16] = dose: 200.0 mg/kg/injection, schedule: Q04DX002 (ip), vehicle: Klucel (hydroxypropylcellulose) (HPC)
[17] = dose: 100.0 mg/kg/injection, schedule: Q01DX009 (ip), vehicle: saline with Tween-80
[18] = dose: 200.0 mg/kg/injection, schedule: Q01DX009 (ip), vehicle: saline with Tween-80

Measured: T/C

Cc1nc2c([N+](=O)[O-])cccn2n1
inactive: dose: 100.0 mg/kg/injection, schedule: Q01DX001 (ip), vehicle: acetone 98 % of control

O=C(Nc1c(Br)cc2c(c1Br)Cc1cc(Br)ccc1-2)C(F)(F)F
inactive: [1] 94 % of control | [2] 101 % of control | [3] 106 % of control

Cc1nc2cccc3ccc4cc5ccccc5c1c4c32
inactive: dose: 100.0 mg/kg/injection, schedule: Q04DX003 (ip), vehicle: saline with Tween-80 89 % of control | dose: 200.0 mg/kg/injection, schedule: Q04DX003 (ip), vehicle: saline with Tween-80 93 % of control

Cn1c(=O)c2c(nc(OCCC3CCCCC3)n2C)n(C)c1=O
inactive: dose: 50.0 mg/kg/injection, schedule: Q01DX001 (ip), vehicle: other 90 % of control | dose: 100.0 mg/kg/injection, schedule: Q01DX001 (ip), vehicle: other 95 % of control | dose: 200.0 mg/kg/injection, schedule: Q01DX001 (ip), vehicle: other 90 % of control | dose: 400.0 mg/kg/injection, schedule: Q01DX001 (ip), vehicle: other 93 % of control

Cc1cc(N(CCCCl)CCCCl)ccc1C=Nc1cc(Br)c(O)c(Br)c1
inactive: [4] 94 % of control | [5] 95 % of control | [6] 96 % of control

CCOC(=O)N(c1ccccc1)C1OCC(OC(C)=O)C(OC(C)=O)C1OC(C)=O (configuration not stated)
inactive: dose: 100.0 mg/kg/injection, schedule: Q01DX009 (ip), vehicle: saline 97 % of control | dose: 100.0 mg/kg/injection, schedule: Q04DX003 (ip), vehicle: water 97 % of control | dose: 200.0 mg/kg/injection, schedule: Q01DX009 (ip), vehicle: saline 93 % of control | dose: 200.0 mg/kg/injection, schedule: Q04DX003 (ip), vehicle: water 97 % of control | dose: 400.0 mg/kg/injection, schedule: Q01DX009 (ip), vehicle: saline 94 % of control | dose: 400.0 mg/kg/injection, schedule: Q04DX003 (ip), vehicle: water 94 % of control

CC1=C/C(=N/NC(N)=O)CC(C)(C)C1
inactive: [1] 93 % of control | [2] 93 % of control | [3] 98 % of control

CCOC(=O)c1ccc(N=NNc2ccc(C(=O)OCC)cc2)cc1
inactive: dose: 10.0 mg/kg/injection, schedule: Q01DX Z (ip), vehicle: other 95 % of control | dose: 30.0 mg/kg/injection, schedule: Q01DX Z (ip), vehicle: other 87 % of control

Cc1ccc(-c2c([N+](=O)[O-])ccc(Cl)c2[N+](=O)[O-])cc1
inactive: [7] 102 % of control | [8] 105 % of control | [9] 102 % of control | [10] 100 % of control

CC1CCCC2=[N+]1CCCC2 (configuration not stated)
inactive: [7] 96 % of control | [8] 96 % of control | [9] 93 % of control

CC(=O)NCCC(C)C
inactive: [11] 98 % of control | [12] 98 % of control | [13] 95 % of control

CCC(CCl)NC(=O)N(N=O)C(CC)CCl (configuration not stated)
inactive: dose: 16.0 mg/kg/injection, schedule: Q01DX001 (ip), vehicle: carboxymethylcellulose (CMC) 96 % of control | dose: 31.0 mg/kg/injection, schedule: Q01DX001 (ip), vehicle: carboxymethylcellulose (CMC) 102 % of control | dose: 62.0 mg/kg/injection, schedule: Q01DX001 (ip), vehicle: carboxymethylcellulose (CMC) 95 % of control | dose: 125.0 mg/kg/injection, schedule: Q01DX001 (ip), vehicle: carboxymethylcellulose (CMC) 101 % of control | dose: 250.0 mg/kg/injection, schedule: Q01DX001 (ip), vehicle: carboxymethylcellulose (CMC) 91 % of control | dose: 375.0 mg/kg/injection, schedule: Q01DX001 (ip), vehicle: carboxymethylcellulose (CMC) 91 % of control | dose: 500.0 mg/kg/injection, schedule: Q01DX001 (ip), vehicle: carboxymethylcellulose (CMC) 101 % of control | dose: 750.0 mg/kg/injection, schedule: Q01DX001 (ip), vehicle: carboxymethylcellulose (CMC) 91 % of control | dose: 1000.0 mg/kg/injection, schedule: Q01DX001 (ip), vehicle: carboxymethylcellulose (CMC) 93 % of control | dose: 1500.0 mg/kg/injection, schedule: Q01DX001 (ip), vehicle: carboxymethylcellulose (CMC) 98 % of control

C=C=C[P+](c1ccccc1)(c1ccccc1)c1ccccc1
inactive: dose: 5.0 mg/kg/injection, schedule: Q01DX001 (ip), vehicle: saline 104 % of control | dose: 10.0 mg/kg/injection, schedule: Q01DX001 (ip), vehicle: saline 98 % of control | dose: 20.0 mg/kg/injection, schedule: Q01DX001 (ip), vehicle: saline 101 % of control | dose: 40.0 mg/kg/injection, schedule: Q01DX001 (ip), vehicle: saline 124 % of control

Cc1ncc(CO)c(COCCC(C)C)c1O
inactive: dose: 100.0 mg/kg/injection, schedule: Q04DX002 (ip), vehicle: saline 95 % of control | dose: 200.0 mg/kg/injection, schedule: Q04DX002 (ip), vehicle: saline 98 % of control

CCOC(=O)c1cc2c3n(c1=O)CCCC3C(c1ccc(Cl)c(Cl)c1)OC2=O (configuration not stated)
inactive: [1] 97 % of control | [2] 104 % of control | [3] 92 % of control

O=C(O)CNc1cccnc1
inactive: dose: 25.0 mg/kg/injection, schedule: Q01DX009 (ip), vehicle: Klucel (hydroxypropylcellulose) (HPC) 95 % of control | dose: 50.0 mg/kg/injection, schedule: Q01DX009 (ip), vehicle: Klucel (hydroxypropylcellulose) (HPC) 100 % of control | [14] 101 % of control

NC(CSS(=O)(=O)O)=NCc1ccccn1
inactive: [15] 95 % of control | [16] 101 % of control | dose: 400.0 mg/kg/injection, schedule: Q04DX002 (ip), vehicle: Klucel (hydroxypropylcellulose) (HPC) 98 % of control

Cc1ccc(NC(=O)COc2ccc(Cl)cc2)c(C)c1
inactive: dose: 100.0 mg/kg/injection, schedule: Q01DX001 (ip), vehicle: Klucel (hydroxypropylcellulose) (HPC) 99 % of control | [14] 100 % of control | [4] 96 % of control | dose: 200.0 mg/kg/injection, schedule: Q01DX001 (ip), vehicle: Klucel (hydroxypropylcellulose) (HPC) 99 % of control | dose: 200.0 mg/kg/injection, schedule: Q01DX009 (ip), vehicle: Klucel (hydroxypropylcellulose) (HPC) 102 % of control | [5] 96 % of control | dose: 400.0 mg/kg/injection, schedule: Q01DX001 (ip), vehicle: Klucel (hydroxypropylcellulose) (HPC) 99 % of control | [6] 98 % of control

O=C(COc1ccc(Cl)c(Cl)c1)Nc1ccc[n+](Cc2ccc(Cl)c(S(=O)(=O)F)c2)c1
inactive: [11] 106 % of control | [12] 94 % of control | [13] 105 % of control

NNC(=O)CNc1cccc(Br)c1
inactive: dose: 50.0 mg/kg/injection, schedule: Q04DX002 (ip), vehicle: Klucel (hydroxypropylcellulose) (HPC) 101 % of control and 92 % of control | [15] 114 % of control and 120 % of control | [16] 108 % of control

O=C1CN(CCN2CC(=O)N(c3ccccc3)C2=S)C(=S)N1Cc1ccccc1
inactive: dose: 50.0 mg/kg/injection, schedule: Q01DX009 (ip), vehicle: saline with Tween-80 96 % of control | [17] 90 % of control | [18] 94 % of control

CCCCC(=O)N/N=C/c1ccc(Cl)cc1
inactive: [8] 93 % of control | [9] 107 % of control | [10] 91 % of control

CCCCC(C)C(=O)Nc1cccc(O)c1 (configuration not stated)
inactive: [17] 92 % of control | [18] 92 % of control | dose: 400.0 mg/kg/injection, schedule: Q01DX009 (ip), vehicle: saline with Tween-80 90 % of control

— PubChem BioAssay AID248 (DTP/NCI, 2004)
